Converted amounts (≈) assume the structure as drawn.
Columns and labels:
Type in all cases: functional
[1] = tested on: Mycobacterium tuberculosis; experiment: AntiMycobacterium tuberculosis activity day 21 in 7H9/2.5mM butyrate/pH6/0.1mM nitrite MIC90 (uM); conditions: 504 h
[2] = tested on: Mycobacterium tuberculosis; experiment: AntiMycobacterium tuberculosis activity Replicating form: Average MIC90 (uM)
[3] = tested on: Mycobacterium tuberculosis; experiment: AntiMycobacterium tuberculosis activity 1-week 7H9/ADC/Tw MIC (uM); conditions: 168 h
[4] = tested on: Mycobacterium tuberculosis; experiment: AntiMycobacterium tuberculosis activity 2-week 7H9/glucose/BSA/Tx MIC (uM); conditions: 336 h
[5] = tested on: Mycobacterium tuberculosis; experiment: (§1) AntiMycobacterium tuberculosis activity day 10 in 7H9/2.5mM butyrate/pH6/0.1mM nitrite MIC90 (uM); conditions: 240 h
[6] = tested on: Mycobacterium tuberculosis; experiment: AntiMycobacterium tuberculosis activity Non-Replicating form: Average MIC90 (uM)
[7] = tested on: Mycobacterium tuberculosis; experiment: AntiMycobacterium tuberculosis activity 2-week 7H9/DPPC/cholesterol/BSA/Tx MIC (uM); conditions: 336 h
[8] = tested on: Mycobacterium tuberculosis; experiment: AntiMycobacterium tuberculosis activity 2-week Alamar Blue 7H9/ADC/Tw MIC (uM); conditions: 336 h
HepG2 = experiment: HepG2 CC50 (uM) Cytotoxicity; conditions: Homo sapiens
[9] = tested on: Mycobacterium tuberculosis; experiment: AntiMycobacterium tuberculosis activity 1-week GAST/Fe MIC (uM); conditions: 168 h
[10] = tested on: Mycobacterium tuberculosis; experiment: AntiMycobacterium tuberculosis activity 1-week 7H9/glucose/BSA/Tx MIC (uM); conditions: 168 h
[11] = tested on: Mycobacterium tuberculosis; experiment: AntiMycobacterium tuberculosis activity 1-week 7H9/cholesterol/BSA/Tx MIC (uM); conditions: 168 h
[12] = tested on: Mycobacterium tuberculosis; experiment: AntiMycobacterium tuberculosis activity 2-week GAST/Fe MIC (uM); conditions: 336 h
[13] = tested on: Mycobacterium tuberculosis; experiment: as §1; conditions: 240 h; remark: listed apart in the source
[14] = tested on: Mycobacterium tuberculosis; experiment: AntiMycobacterium tuberculosis activity 2-week 7H9/ADC/Tw MIC (uM); conditions: 336 h
[15] = tested on: Mycobacterium tuberculosis; experiment: AntiMycobacterium tuberculosis activity day 21 MIC99 in 7H9/2.5mM butyrate/pH6/0.1mM nitrite MIC99 (uM); conditions: 504 h
[16] = tested on: Mycobacterium tuberculosis; experiment: AntiMycobacterium tuberculosis activity 2-week Alamar Blue 7H9/cholesterol/BSA/Tx MIC (uM); conditions: 336 h
[17] = tested on: Mycobacterium tuberculosis; experiment: AntiMycobacterium tuberculosis activity 1-week 7H9/DPPC/cholesterol/BSA/Tx MIC (uM); conditions: 168 h

Structure (SMILES)	MIC90 [1] [µM]	MIC90 [2] [µM]	MIC [3] [µM]	MIC [4] [µM]	MIC90 [5] [µM]	MIC90 [6] [µM]	MIC [7] [µM]	MIC [8] [µM]	CC50 (HepG2) [µM]	MIC [9] [µM]	MIC [10] [µM]	MIC [11] [µM]	MIC [12] [µM]	MIC90 [13] [µM]	MIC [14] [µM]	MIC [15] [µM]	MIC [16] [µM]	MIC [17] [µM]
Cc1nn(Cc2ccccc2)c(Cl)c1C(=O)NC1CCCCCC1	25 (≈ 8.65 µg/mL)	> 100	19 (≈ 6.57 µg/mL)	> 50	3.12 (≈ 1.08 µg/mL)	5.96 (≈ 2.06 µg/mL)	6.25 (≈ 2.16 µg/mL)	6.25 (≈ 2.16 µg/mL)	> 100	0.39 (≈ 0.135 µg/mL)	37 (≈ 12.8 µg/mL)	1.56 (≈ 0.54 µg/mL)	0.39 (≈ 0.135 µg/mL)	3.12 (≈ 1.08 µg/mL)	50 (≈ 17.3 µg/mL)	25 (≈ 8.65 µg/mL)	2.3 (≈ 0.796 µg/mL)	4.7 (≈ 1.63 µg/mL)
CC(C)(C)c1cnc(NC(=O)c2ccccc2O)s1	50 (≈ 13.8 µg/mL)	81.9 (≈ 22.6 µg/mL)	> 50	> 50	50 (≈ 13.8 µg/mL)	21 (≈ 5.81 µg/mL)	> 50	> 50	47.6	19 (≈ 5.25 µg/mL)	> 50	> 50	25 (≈ 6.91 µg/mL)	> 50	> 50	> 50	> 50	> 50
Nc1cccnc1Nc1ccc(Cl)cc1	50 (≈ 11 µg/mL)	4.3 (≈ 0.945 µg/mL)	> 50	50 (≈ 11 µg/mL)	12.5 (≈ 2.75 µg/mL)	3.65 (≈ 0.802 µg/mL)	19 (≈ 4.17 µg/mL)	37 (≈ 8.13 µg/mL)	9	50 (≈ 11 µg/mL)	50 (≈ 11 µg/mL)	9.4 (≈ 2.06 µg/mL)	50 (≈ 11 µg/mL)	> 50	> 50	> 50	4.7 (≈ 1.03 µg/mL)	12.5 (≈ 2.75 µg/mL)
Cc1cc(Cl)ccc1NC(=O)CCc1ccc(S(=O)(=O)NCC(C)C)cc1	25 (≈ 10.2 µg/mL)	14.4 (≈ 5.87 µg/mL)	4.7 (≈ 1.92 µg/mL)	6.25 (≈ 2.56 µg/mL)	> 50	13.4 (≈ 5.49 µg/mL)	3.13 (≈ 1.28 µg/mL)	6.25 (≈ 2.56 µg/mL)	> 100	2.3 (≈ 0.941 µg/mL)	4.7 (≈ 1.92 µg/mL)	3.13 (≈ 1.28 µg/mL)	2.3 (≈ 0.941 µg/mL)	> 50	6.25 (≈ 2.56 µg/mL)	50 (≈ 20.4 µg/mL)	6.25 (≈ 2.56 µg/mL)	3.13 (≈ 1.28 µg/mL)
N#Cc1nc(-c2ccccc2F)oc1NCCc1ccccc1	> 50	> 100	> 50	> 50	50 (≈ 15.4 µg/mL)	75.5 (≈ 23.2 µg/mL)	50 (≈ 15.4 µg/mL)	37 (≈ 11.4 µg/mL)	> 100	0.78 (≈ 0.24 µg/mL)	> 50	19 (≈ 5.84 µg/mL)	1.56 (≈ 0.479 µg/mL)	> 50	> 50	> 50	12.5 (≈ 3.84 µg/mL)	12.5 (≈ 3.84 µg/mL)
O=C(NCc1cc(Cl)cc(Cl)c1)c1c(C(F)(F)F)nc2ccccn12	12.5 (≈ 4.85 µg/mL)	> 100	12.5 (≈ 4.85 µg/mL)	> 50	1.5 (≈ 0.582 µg/mL)	2.93 (≈ 1.14 µg/mL)	12.5 (≈ 4.85 µg/mL)	12.5 (≈ 4.85 µg/mL)	38.3	0.1 (≈ 0.0388 µg/mL)	> 50	2.3 (≈ 0.893 µg/mL)	0.39 (≈ 0.151 µg/mL)	> 50	37 (≈ 14.4 µg/mL)	> 50	1.2 (≈ 0.466 µg/mL)	4.7 (≈ 1.82 µg/mL)
COc1cc(C(F)(F)F)nc2ccc(C)c(N)c12	6.25 (≈ 1.6 µg/mL)	> 100	> 50	> 50	3.12 (≈ 0.799 µg/mL)	16.1 (≈ 4.12 µg/mL)	50 (≈ 12.8 µg/mL)	12.5 (≈ 3.2 µg/mL)	> 100	0.2 (≈ 0.0512 µg/mL)	25 (≈ 6.41 µg/mL)	2.3 (≈ 0.589 µg/mL)	0.6 (≈ 0.154 µg/mL)	> 50	> 50	> 50	3.13 (≈ 0.802 µg/mL)	4.7 (≈ 1.2 µg/mL)
Cc1cc(OCC(=O)NCc2ccccc2)c2cc(Br)ccc2n1	6.25 (≈ 2.41 µg/mL)	> 100	50 (≈ 19.3 µg/mL)	50 (≈ 19.3 µg/mL)	1.5 (≈ 0.578 µg/mL)	21.2 (≈ 8.17 µg/mL)	25 (≈ 9.63 µg/mL)	4.7 (≈ 1.81 µg/mL)	31	0.2 (≈ 0.0771 µg/mL)	37 (≈ 14.3 µg/mL)	2.3 (≈ 0.886 µg/mL)	0.39 (≈ 0.15 µg/mL)	25 (≈ 9.63 µg/mL)	> 50	> 50	1.56 (≈ 0.601 µg/mL)	3.13 (≈ 1.21 µg/mL)
Cc1cc(NCCc2ccccc2)nc(NC(=N)Nc2ccc(Cl)cc2)n1	3.12 (≈ 1.19 µg/mL)	1.15 (≈ 0.438 µg/mL)	1.2 (≈ 0.457 µg/mL)	1.2 (≈ 0.457 µg/mL)	3.12 (≈ 1.19 µg/mL)	2.77 (≈ 1.06 µg/mL)	0.78 (≈ 0.297 µg/mL)	2.3 (≈ 0.876 µg/mL)	6.5	0.78 (≈ 0.297 µg/mL)	1.2 (≈ 0.457 µg/mL)	0.6 (≈ 0.229 µg/mL)	0.78 (≈ 0.297 µg/mL)	6.25 (≈ 2.38 µg/mL)	1.56 (≈ 0.594 µg/mL)	3.12 (≈ 1.19 µg/mL)	0.78 (≈ 0.297 µg/mL)	0.6 (≈ 0.229 µg/mL)
COc1ccc2nc(C)cc(OCC(=O)Nc3ccccc3OC)c2c1	> 50	> 50	37 (≈ 13 µg/mL)	50 (≈ 17.6 µg/mL)	> 50	1.61 (≈ 0.567 µg/mL)	25 (≈ 8.81 µg/mL)	2.3 (≈ 0.81 µg/mL)	57.4	0.05 (≈ 0.0176 µg/mL)	25 (≈ 8.81 µg/mL)	12.5 (≈ 4.4 µg/mL)	0.1 (≈ 0.0352 µg/mL)	> 50	> 50	> 50	2.3 (≈ 0.81 µg/mL)	1.56 (≈ 0.55 µg/mL)

Source: ChEMBL document CHEMBL3832761, “MMV Pathogen Box Bioactivity Data” (2017)
